Key:
Test in all cases: Bliss excess, mean over the matrix (fraction); higher = more synergy
[1] = test system: NCI-H1648 (Lung Adenocarcinoma)
In short: (§1)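 Bliss excess equals the observed combination effect minus the expected value EA + EB − EA·EB, where EA and EB are the effects of each agent alone. Combination Emax is the second-highest inhibition within the matrix. Inhibition was scaled from CellTiter-Glo 2.0 luminescence, with 0 set by vehicle wells and 1 by blank wells, after 72 hours of two-drug dosing of cells plated in 1536-well plates.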

[2] = test system: SW1463 (Colorectal Carcinoma)
In short: as §1

[3] = test system: NCI-H2023 (Non-Small Cell Lung Carcinoma)
In short: as §1

[4] = test system: NCI-H1975 (Lung Adenocarcinoma)
In short: as §1

[5] = test system: L-363 (Plasma Cell Myeloma)
In short: as §1

[6] = test system: SCC90 (Head and Neck Carcinoma)
In short: as §1

[7] = test system: NCI-H1944 (Lung Adenocarcinoma)
In short: as §1

[8] = test system: BT-474 (Breast Carcinoma)
In short: as §1

[9] = test system: NCI-H2170 (Squamous Cell Lung Carcinoma)
In short: as §1

[10] = test system: MRK-nu-1 (Breast Carcinoma)
In short: as §1

[11] = test system: CAL-85-1 (Breast Carcinoma)
In short: as §1

[12] = test system: RPMI-8402 (T-Lymphoblastic Leukemia)
In short: as §1

[13] = test system: SBC-5 (Small Cell Lung Carcinoma)
In short: as §1

MG-63 (Osteosarcoma) = test system: MG-63 (Osteosarcoma)
In short: as §1

[14] = test system: KNS-62 (Squamous Cell Lung Carcinoma)
In short: as §1

[15] = test system: JURL-MK1 (Chronic Myelogenous Leukemia)
In short: as §1

[16] = test system: BC-1 (B-Cell Non-Hodgkin's Lymphoma)
In short: as §1

[17] = test system: ATN-1 (T-Lymphoblastic Leukemia)
In short: as §1

NCI-H2452 (Mesothelioma) = test system: NCI-H2452 (Mesothelioma)
In short: as §1

[18] = test system: NCI-H835 (Other Solid Carcinomas)
In short: as §1

Structure (SMILES): COc1cc2ncnc(Nc3ccc(F)c(Cl)c3)c2cc1OCCCN1CCOCC1 [Gefitinib] + CC(C)n1c(=O)n(C)c2cnc3cc(F)c(-c4ccc(OCCCN5CCCCC5)nc4)cc3c21 [AZD1390] (first compound max 10 µM, 7x7, partner max 0.3 µM)
- Bliss excess [1]: -0.0521
- Bliss excess [2]: 0.0109
- Bliss excess [3]: -0.0463
- Bliss excess [4]: -0.0676
- Bliss excess [5]: -0.0135
- Bliss excess [6]: -0.0582
- Bliss excess [7]: -0.0668
- Bliss excess [8]: -0.0866
- Bliss excess [9]: -0.0867
- Bliss excess [10]: 0.0492
- Bliss excess [11]: -0.0236
- Bliss excess [12]: -0.0801
- Bliss excess [13]: -0.0649
- Bliss excess (MG-63 (Osteosarcoma)): -0.0772
- Bliss excess [14]: -0.0783
- Bliss excess [15]: -0.0586
- Bliss excess [16]: -0.0279
- Bliss excess [17]: -0.0377
- Bliss excess (NCI-H2452 (Mesothelioma)): -0.108
- Bliss excess [18]: -0.0381

Structure (SMILES): Cc1cc2ncnn2cc1Nc1ncc2c(n1)n(C1CCOCC1)c(=O)n2C [AZD7648] + CCN(CCO)CCCOc1ccc2c(Nc3cc(CC(=O)Nc4cccc(F)c4)[nH]n3)ncnc2c1 [AZD2811] (first compound max 10 µM, 7x7, partner max 1 µM)
- Bliss excess [1]: 0.0369
- Bliss excess [2]: -0.0035
- Bliss excess [3]: -0.0238
- Bliss excess [4]: 0.008
- Bliss excess [5]: 0.0321
- Bliss excess [6]: 0.0511
- Bliss excess [7]: 0.0709
- Bliss excess [8]: -0.0214
- Bliss excess [9]: 0.0187
- Bliss excess [10]: 0.0245
- Bliss excess [11]: -0.0195
- Bliss excess [12]: -0.0443
- Bliss excess [13]: 0.057
- Bliss excess (MG-63 (Osteosarcoma)): 0.0401
- Bliss excess [14]: 0.0489
- Bliss excess [15]: -0.0046
- Bliss excess [16]: 0.035
- Bliss excess [17]: -0.0768
- Bliss excess (NCI-H2452 (Mesothelioma)): 0.001
- Bliss excess [18]: 0.0595

Structure (SMILES): COc1cc2c(cc1OCCCCCOc1cc3c(cc1OC)C(=O)N1C=C(C)C[C@H]1C=N3)N=C[C@@H]1CC(C)=CN1C2=O [SG3199] + O=C(c1cc(Cc2n[nH]c(=O)c3ccccc23)ccc1F)N1CCN(C(=O)C2CC2)CC1 [Olaparib] (first compound max 0.001 µM, 7x7, partner max 10 µM)
- Bliss excess [1]: -0.0282
- Bliss excess [2]: -0.0393
- Bliss excess [3]: -0.0562
- Bliss excess [4]: -0.0171
- Bliss excess [5]: -0.0123
- Bliss excess [6]: -0.0461
- Bliss excess [7]: -0.0259
- Bliss excess [8]: -0.0487
- Bliss excess [9]: -0.009
- Bliss excess [10]: -0.0642
- Bliss excess [11]: -0.0407
- Bliss excess [12]: -0.0259
- Bliss excess [13]: -0.0193
- Bliss excess (MG-63 (Osteosarcoma)): -0.0041
- Bliss excess [14]: -0.0464
- Bliss excess [15]: -0.0007
- Bliss excess [16]: -0.0102
- Bliss excess [17]: -0.0249
- Bliss excess (NCI-H2452 (Mesothelioma)): -0.117
- Bliss excess [18]: -0.0406

Structure (SMILES): C[C@@H](c1ccc2nccn2c1)n1nnc2ncc(-c3cnn(C)c3)nc21 [Savolitinib] + CC1(C)CCC(CN2CCN(c3ccc(C(=O)NS(=O)(=O)c4ccc(NCC5CCOCC5)c([N+](=O)[O-])c4)c(Oc4cnc5[nH]ccc5c4)c3)CC2)=C(c2ccc(Cl)cc2)C1 [Venetoclax] (first compound max 1 µM, 7x7, partner max 1 µM)
- Bliss excess [1]: -0.0253
- Bliss excess [2]: -0.0339
- Bliss excess [3]: -0.0161
- Bliss excess [4]: -0.0329
- Bliss excess [5]: -0.0159
- Bliss excess [6]: -0.0192
- Bliss excess [7]: -0.0328
- Bliss excess [8]: -0.0682
- Bliss excess [9]: -0.0336
- Bliss excess [10]: 0.0851
- Bliss excess [11]: -0.0468
- Bliss excess [12]: -0.0218
- Bliss excess [13]: -0.0451
- Bliss excess (MG-63 (Osteosarcoma)): -0.0157
- Bliss excess [14]: -0.0616
- Bliss excess [15]: -0.0679
- Bliss excess [16]: 0.0031
- Bliss excess [17]: -0.0192
- Bliss excess (NCI-H2452 (Mesothelioma)): -0.0714
- Bliss excess [18]: -0.0355

Structure (SMILES): Cc1nc(Nc2ncc(C(=O)Nc3c(C)cccc3Cl)s2)cc(N2CCN(CCO)CC2)n1 [Dasatinib] + CC(=O)Nc1cccc(-n2c(=O)n(C3CC3)c(=O)c3c(Nc4ccc(I)cc4F)n(C)c(=O)c(C)c32)c1 [Trametinib] (first compound max 2 µM, 7x7, partner max 1 µM)
- Bliss excess [1]: 0.0135
- Bliss excess [2]: -0.0659
- Bliss excess [3]: -0.0228
- Bliss excess [4]: 0.0302
- Bliss excess [5]: -0.0221
- Bliss excess [6]: -0.165
- Bliss excess [7]: 0.0343
- Bliss excess [8]: -0.0493
- Bliss excess [9]: -0.0593
- Bliss excess [10]: -0.0688
- Bliss excess [11]: 0.0959
- Bliss excess [12]: 0.0053
- Bliss excess [13]: 0.025
- Bliss excess (MG-63 (Osteosarcoma)): -0.0066
- Bliss excess [14]: -0.0815
- Bliss excess [15]: -0.0029
- Bliss excess [16]: 0.0858
- Bliss excess [17]: -0.089
- Bliss excess (NCI-H2452 (Mesothelioma)): -0.0671
- Bliss excess [18]: -0.0662

Structure (SMILES): C=CCn1c(=O)c2cnc(Nc3ccc(N4CCN(C)CC4)cc3)nc2n1-c1cccc(C(C)(C)O)n1 [AZD1775] + C1CN(CCC1(C(=O)N[C@@H](CCO)C2=CC=C(C=C2)Cl)N)C3=NC=NC4=C3C=CN4 [Capivasertib] (first compound max 3 µM, partner max 3 µM)
- Bliss excess [1]: -0.0257
- Bliss excess [2]: -0.0888
- Bliss excess [3]: -0.003
- Bliss excess [4]: -0.0668
- Bliss excess [5]: -0.0379
- Bliss excess [6]: -0.0309
- Bliss excess [7]: 0.0207
- Bliss excess [8]: 0.0145
- Bliss excess [9]: -0.0454
- Bliss excess [10]: -0.0885
- Bliss excess [11]: -0.0528
- Bliss excess [12]: 0.0084
- Bliss excess [13]: 0.0256
- Bliss excess (MG-63 (Osteosarcoma)): -0.0484
- Bliss excess [14]: -0.0128
- Bliss excess [15]: 0.0007
- Bliss excess [16]: 0.0279
- Bliss excess [17]: 0.0364
- Bliss excess (NCI-H2452 (Mesothelioma)): -0.116
- Bliss excess [18]: -0.0572
